Measured values as given in ChEMBL document CHEMBL3352125, “Cytotoxic activity of substituted chalcones in terms of molecular electronic properties” (Bioorg Med Chem Lett, 2014).

Key:
Type in all cases: functional, cell-based
[1] = Cytotoxicity against human HL60 cells by MTT assay; conditions: HL-60
[2] = Cytotoxicity against human NALM6 cells by MTT assay; conditions: NALM-6
[3] = Cytotoxicity against human WM115 cells by MTT assay; conditions: WM-115

SMILES | IC50 [1] [µM] | IC50 [2] [µM] | IC50 [3] [µM]
O=C(/C=C/c1ccc(Cl)cc1)c1ccccc1O | 8.3 | 9.3 | 48.9
O=C(/C=C/c1ccccc1)c1ccc(O)cc1O [2',4'-DIHYDROXYCHALCONE] | 6.3 | 18 | 42
O=C(/C=C/c1ccccc1Cl)c1ccccc1O | 7.7 | 6.1 | 7.6
O=C(/C=C/c1ccc(Br)cc1)c1ccccc1O | 7.3 | 6.8 | 50
O=C(/C=C/c1ccc([N+](=O)[O-])cc1)c1ccccc1O | 5.8 | 6.9 | 27.6
O=C1CCOc2ccccc21 [CHROMANONE] | 19.1 | 8.2 | 53.2
COc1cc(/C=C/C(=O)c2ccccc2O)cc(OC)c1OC | 39.3 | 31.7 | 56.4
COc1ccc(/C=C/C(=O)c2ccccc2O)cc1 | 48.7 | 50.2 | 60.5
O=C(/C=C/c1ccccc1)c1cc(O)ccc1O | 5.3 | 5.5 | 61.3
O=C(/C=C/c1ccccc1)c1ccccc1 [CHALCONE] | 55.4 | 23.9 | 43.1
O=C(/C=C/c1ccccc1)c1ccccc1O [2'-HYDROXYCHALCONE] | 18 | 37.5 | 40.8
O=C(/C=C/c1ccc(O)cc1)c1ccccc1O | 7.1 | 40.6 | 69.1
